Values quoted from earlier work, collected in patent US6916479B2, “Compositions containing an antifungal and a phospholipid” (Janssen Pharmaceutica N.V., priority 1997, dated 2005).

Details: prior art medicated shampoo

Q: For CC(=O)N1CCN(c2ccc(OCC3COC(Cn4ccnc4)(c4ccc(Cl)cc4Cl)O3)cc2)CC1 (centres unmarked) [ketoconazole], which “number of patients not responding to particular medicated shampoo” value is on record?
A: up to 30%

Q: With S=[Se]=S [selenium sulfide] as the compound, how does the “number of patients not responding to particular medicated shampoo” value read?
A: up to 40%
